Experimental data: patent US8754130B2, “Compositions of dibromomalonamide and their use as biocides” (Dow Global Technologies LLC, priority 2009, dated 2014)
Where two headings read alike, the source gives them in different places.

Tests used:
[1] = Growth inhibition assay (microtiter plate-based synergy assay); format: cell-based; conditions: 24 h
[2] = test system: consortium of bacteria: mixture of Pseudomonas aeruginosa, Klebsiella pneumoniae, Staphylococcus aureus, and Bacillus subtilis; test: as above; format: cell-based; conditions: 24 h; for I90 value (minimum concentration in which growth of the consortium is at least 90% less than controls): single active alone

In the case of `CCCCCCCCn1sccc1=O` [OIT, 2-n-octyl-4-isothiazolin-3-one], the inhibition at 3.91 µg/mL ([1]; OIT 3.91 mg/l alone) is reported as 0%, the inhibition at 7.81 µg/mL ([1]; OIT 7.81 mg/l alone) is reported as 7% and the inhibition at 15.63 µg/mL ([1]; OIT 15.63 mg/l alone) is reported as 24%. For the same compound, the inhibition at 31.25 µg/mL ([1]; OIT 31.25 mg/l alone) was 43%, the inhibition at 62.5 µg/mL ([1]; OIT 62.5 mg/l alone) was 64% and the inhibition at 125 µg/mL ([1]; OIT 125.0 mg/l alone) was 100%. For the same compound, the inhibition at 250 µg/mL ([1]; OIT 250.0 mg/l alone) was 100%, the inhibition at 500 µg/mL ([1]; OIT 500.0 mg/l alone) was 100% and the “I90 value (minimum concentration in which growth of the consortium is at least 90% less than controls)” value [2] was 125 mg/L.

In the case of `O=c1[nH]sc2ccccc12` [BIT, 1,2-benzisothiazolin-3-one], the “% Inhibition of growth by BIT” value ([2]; BIT 3.91 mg/l alone) is reported as 17%, the “% Inhibition of growth by BIT” value ([2]; BIT 7.81 mg/l alone) is reported as 46% and the “I90 value (minimum concentration in which growth of the consortium is at least 90% less than controls)” value [2] is reported as 15.63 mg/L.

In the case of `Cn1sc(Cl)cc1=O` [CMIT, 5-chloro-2-methyl-4-isothiazolin-3-one], the inhibition at 0.39 µg/mL ([1]; CMIT 0.39 mg/l alone, read-out: % Inhibition of growth by CMIT) is reported as 10%, the inhibition at 0.78 µg/mL ([1]; CMIT 0.78 mg/l alone, read-out: % Inhibition of growth by CMIT) is reported as 97% and the inhibition at 1.56 µg/mL ([1]; CMIT 1.56 mg/l alone, read-out: % Inhibition of growth by CMIT) is reported as 96%. For the same compound, the inhibition at 3.13 µg/mL ([1]; CMIT 3.13 mg/l alone, read-out: % Inhibition of growth by CMIT) was 98%, the inhibition at 6.25 µg/mL ([1]; CMIT 6.25 mg/l alone, read-out: % Inhibition of growth by CMIT) was 97% and the inhibition at 12.5 µg/mL ([1]; CMIT 12.5 mg/l alone, read-out: % Inhibition of growth by CMIT) was 96%. For the same compound, the inhibition at 25 µg/mL ([1]; CMIT 25.0 mg/l alone, read-out: % Inhibition of growth by CMIT) was 98% and the “I90 value (minimum concentration in which growth of the consortium is at least 90% less than controls)” value [2] was 0.78 mg/L.

In the case of `CCCCn1sc2ccccc2c1=O` [BBIT, N-butyl-1,2-benzisothiazolin-3-one], the “% Inhibition of growth by BBIT” value ([2]; BBIT 6.25 mg/l alone) is reported as 32%, the “% Inhibition of growth by BBIT” value ([2]; BBIT 12.5 mg/l alone) is reported as 24% and the “% Inhibition of growth by BBIT” value ([2]; BBIT 25.0 mg/l alone) is reported as 49%. The “I90 value (minimum concentration in which growth of the consortium is at least 90% less than controls)” value [2] was 50.0 mg/L.

For `Cn1sccc1=O` [MIT, 2-methyl-4-isothiazolin-3-one], the inhibition at […] ([1]; MIT 0.19 mg/l alone) was 0%, the inhibition at 0.39 µg/mL ([1]; MIT 0.39 mg/l alone, read-out: % Inhibition of growth by MIT) was 0% and the inhibition at 0.78 µg/mL ([1]; MIT 0.78 mg/l alone, read-out: % Inhibition of growth by MIT) was 0%. It also gave an inhibition at 1.56 µg/mL ([1]; MIT 1.56 mg/l alone, read-out: % Inhibition of growth by MIT) of 6%, an inhibition at 3.13 µg/mL ([1]; MIT 3.13 mg/l alone, read-out: % Inhibition of growth by MIT) of 6% and an inhibition at 6.25 µg/mL ([1]; MIT 6.25 mg/l alone, read-out: % Inhibition of growth by MIT) of 16%. For the same compound, the inhibition at 12.5 µg/mL ([1]; MIT 12.5 mg/l alone, read-out: % Inhibition of growth by MIT) was 38%, the inhibition at 25 µg/mL ([1]; MIT 25.0 mg/l alone, read-out: % Inhibition of growth by MIT) was 96% and the “I90 value (minimum concentration in which growth of the consortium is at least 90% less than controls)” value [2] was 25 mg/L.

Work on `NC(=O)C(Br)(Br)C(N)=O` [DBMAL, 2,2-dibromomalonamide] yielded an inhibition at 0.39 µg/mL ([1]; Table 2, DBMAL 0.39 mg/l alone, read-out: % Inhibition of growth by DBMAL) of 11%, an inhibition at 0.78 µg/mL ([1]; Table 2, DBMAL 0.78 mg/l alone, read-out: % Inhibition of growth by DBMAL) of 13% and an inhibition at 1.56 µg/mL ([1]; Table 2, DBMAL 1.56 mg/l alone, read-out: % Inhibition of growth by DBMAL) of 15%. It also gave an inhibition at 3.13 µg/mL ([1]; Table 2, DBMAL 3.13 mg/l alone, read-out: % Inhibition of growth by DBMAL) of 23%, an inhibition at 6.25 µg/mL ([1]; Table 2, DBMAL 6.25 mg/l alone, read-out: % Inhibition of growth by DBMAL) of 0% and an inhibition at 12.5 µg/mL ([1]; Table 2, DBMAL 12.5 mg/l alone, read-out: % Inhibition of growth by DBMAL) of 98%. For the same compound, the inhibition at 0.39 µg/mL ([1]; Table 4, DBMAL 0.39 mg/l alone, read-out: % Inhibition of growth by DBMAL) was 6%, the inhibition at 0.78 µg/mL ([1]; Table 4, DBMAL 0.78 mg/l alone, read-out: % Inhibition of growth by DBMAL) was 2% and the inhibition at 1.56 µg/mL ([1]; Table 4, DBMAL 1.56 mg/l alone, read-out: % Inhibition of growth by DBMAL) was 1%. The inhibition at 6.25 µg/mL ([1]; Table 4, DBMAL 6.25 mg/l alone, read-out: % Inhibition of growth by DBMAL) was 23%, the inhibition at 25 µg/mL ([1]; Table 4, DBMAL 25.0 mg/l alone, read-out: % Inhibition of growth by DBMAL) was 100% and the inhibition at 0.39 µg/mL ([1]; Table 6, DBMAL 0.39 mg/l alone, read-out: % Inhibition of growth by DBMAL) was 0%. The inhibition at 0.78 µg/mL ([1]; Table 6, DBMAL 0.78 mg/l alone, read-out: % Inhibition of growth by DBMAL) was 6%, the inhibition at 3.13 µg/mL ([1]; Table 6, DBMAL 3.13 mg/l alone, read-out: % Inhibition of growth by DBMAL) was 11% and the inhibition at 6.25 µg/mL ([1]; Table 6, DBMAL 6.25 mg/l alone, read-out: % Inhibition of growth by DBMAL) was 28%. For the same compound, the inhibition at 12.5 µg/mL ([1]; Table 6, DBMAL 12.5 mg/l alone, read-out: % Inhibition of growth by DBMAL) was 100%, the inhibition at 25 µg/mL ([1]; Table 6, DBMAL 25.0 mg/l alone, read-out: % Inhibition of growth by DBMAL) was 100% and the inhibition at 0.39 µg/mL ([1]; Table 8, DBMAL 0.39 mg/l alone, read-out: % Inhibition of growth by DBMAL) was 3%. The inhibition at 0.78 µg/mL ([1]; Table 8, DBMAL 0.78 mg/l alone, read-out: % Inhibition of growth by DBMAL) was 1%, the inhibition at 1.56 µg/mL ([1]; Table 8, DBMAL 1.56 mg/l alone, read-out: % Inhibition of growth by DBMAL) was 0% and the inhibition at 3.13 µg/mL ([1]; Table 8, DBMAL 3.13 mg/l alone, read-out: % Inhibition of growth by DBMAL) was 8%. For the same compound, the inhibition at 6.25 µg/mL ([1]; Table 8, DBMAL 6.25 mg/l alone, read-out: % Inhibition of growth by DBMAL) was 45%, the inhibition at 12.5 µg/mL ([1]; Table 8, DBMAL 12.5 mg/l alone, read-out: % Inhibition of growth by DBMAL) was 100% and the inhibition at 25 µg/mL ([1]; Table 8, DBMAL 25.0 mg/l alone, read-out: % Inhibition of growth by DBMAL) was 99%. For the same compound, the inhibition at 0.39 µg/mL ([1]; Table 10, DBMAL 0.39 mg/l alone, read-out: % Inhibition of growth by DBMAL) was 3%, the inhibition at 0.78 µg/mL ([1]; Table 10, DBMAL 0.78 mg/l alone, read-out: % Inhibition of growth by DBMAL) was 0% and the inhibition at 1.56 µg/mL ([1]; Table 10, DBMAL 1.56 mg/l alone, read-out: % Inhibition of growth by DBMAL) was 1%. It also gave an inhibition at 3.13 µg/mL ([1]; Table 10, DBMAL 3.13 mg/l alone, read-out: % Inhibition of growth by DBMAL) of 0%, an inhibition at 6.25 µg/mL ([1]; Table 10, DBMAL 6.25 mg/l alone, read-out: % Inhibition of growth by DBMAL) of 44% and an inhibition at 12.5 µg/mL ([1]; Table 10, DBMAL 12.5 mg/l alone, read-out: % Inhibition of growth by DBMAL) of 100%. It also gave an inhibition at 25 µg/mL ([1]; Table 10, DBMAL 25.0 mg/l alone, read-out: % Inhibition of growth by DBMAL) of 100%, an inhibition at 0.39 µg/mL ([1]; Table 12, DBMAL 0.39 mg/l alone, read-out: % Inhibition of growth by DBMAL) of 3% and an inhibition at 0.78 µg/mL ([1]; Table 12, DBMAL 0.78 mg/l alone, read-out: % Inhibition of growth by DBMAL) of 0%. For the same compound, the inhibition at 1.56 µg/mL ([1]; Table 12, DBMAL 1.56 mg/l alone, read-out: % Inhibition of growth by DBMAL) was 1%, the inhibition at 3.13 µg/mL ([1]; Table 12, DBMAL 3.13 mg/l alone, read-out: % Inhibition of growth by DBMAL) was 0% and the inhibition at 6.25 µg/mL ([1]; Table 12, DBMAL 6.25 mg/l alone, read-out: % Inhibition of growth by DBMAL) was 44%. For the same compound, the inhibition at 12.5 µg/mL ([1]; Table 12, DBMAL 12.5 mg/l alone, read-out: % Inhibition of growth by DBMAL) was 100%, the inhibition at 25 µg/mL ([1]; Table 12, DBMAL 25.0 mg/l alone, read-out: % Inhibition of growth by DBMAL) was 100% and the inhibition at 0.39 µg/mL ([1]; Table 14, DBMAL 0.39 mg/l alone, read-out: % Inhibition of growth by DBMAL) was 3%. The inhibition at 0.78 µg/mL ([1]; Table 14, DBMAL 0.78 mg/l alone, read-out: % Inhibition of growth by DBMAL) was 0%, the inhibition at 1.56 µg/mL ([1]; Table 14, DBMAL 1.56 mg/l alone, read-out: % Inhibition of growth by DBMAL) was 0% and the inhibition at 3.13 µg/mL ([1]; Table 14, DBMAL 3.13 mg/l alone, read-out: % Inhibition of growth by DBMAL) was 0%. For the same compound, the inhibition at 6.25 µg/mL ([1]; Table 14, DBMAL 6.25 mg/l alone, read-out: % Inhibition of growth by DBMAL) was 34%, the inhibition at 12.5 µg/mL ([1]; Table 14, DBMAL 12.5 mg/l alone, read-out: % Inhibition of growth by DBMAL) was 93% and the inhibition at 25 µg/mL ([1]; Table 14, DBMAL 25.0 mg/l alone, read-out: % Inhibition of growth by DBMAL) was 100%.

With `Cn1sc2ccccc2c1=O` [MBIT, N-methyl-1,2-benzisothiazolin-3-one] the “% Inhibition of growth by MBIT” value ([2]; MBIT 0.78 mg/l alone) was 16%, the “% Inhibition of growth by MBIT” value ([2]; MBIT 1.56 mg/l alone) was 13% and the “% Inhibition of growth by MBIT” value ([2]; MBIT 6.25 mg/l alone) was 26%. For the same compound, the “% Inhibition of growth by MBIT” value ([2]; MBIT 12.5 mg/l alone) was 53%, the “% Inhibition of growth by MBIT” value ([2]; MBIT 25.0 mg/l alone) was 23% and the “% Inhibition of growth by MBIT” value ([2]; MBIT 50.0 mg/l alone) was 67%. The “I90 value (minimum concentration in which growth of the consortium is at least 90% less than controls)” value [2] was 100.0 mg/L.
